This note sets out measurements from patent US20250154140A1 (Sunnybrook Research Institute, priority 2022, published 2025).

One may read the IC50 as the concentration that gives 50% inhibition.

For assay [1], the target named is T1, FL EGFR (Homo sapiens, UniProt P00533).
T1 construct: kinase domain of EGFR (amino acids 695-1210); purchased Promega V3831
The experiment in a line: EGFR kinase assay (ADP-Glo). It counts as biochemical. Here is the method: A peptide containing the kinase domain of EGFR (amino acids 695-1210) was used to assess the inhibitory potency of the inhibitors. The ADP-Glo kinase assay (Promega V9101), and the EGFR kinase enzyme (Promega V3831) were used according to the supplier's instructions. Briefly, […] reactions were assembled in wells of a 384 well plate as follows: 5 μL of the kinase reaction, 5 μL of the ADP depletion reagent, and 10 μL of the luciferase reagent. For the kinase reaction: 1 μL of the inhibitor (dissolved in DMSO) was mixed with 2 μL EGFR peptide ([…]), 1 μL of a poly Glu4Tyr1 peptide (0.2 μg/μL), 1 μL reaction buffer, and 1 μL of ATP (final concentration of 5 μM). The kinase reaction was incubated at room temperature for 1 hour. 5 μL of the ATP depletion/kinase terminating reagent was mixed into each well and incubated at room temperature for 40 minutes. 10 μL of the kinase detection reagent containing luciferase was mixed into each well and incubated at room temperature for 30 minutes for bioluminescent detection of ADP produced from the kinase reaction in step 1. Bioluminescent signal was detected in a Tecan Safire^2 with a black plug covering the excitation filter, and an empty emission filter. The integration time was increased to […] to detect enough luminescence per reading.
Background: ADP-Glo turns the ADP formed in a reaction into a luminescent signal.

The target of assay [2] is BAX (Homo sapiens, UniProt Q07812). The experiment in a line: SMAC mCherry assay in permeabilized Bax-/- Bak-/- BMK cells with recombinant Bax and cBid. The class given is cell-based, mouse. The arrangement: made in house; host or cells: Escherichia coli BL21-AI. Conditions: 20 nM Bax, 0.5 nM cBid, 60-80 minutes; read-out: SMAC mCherry I.D IC50. Here is the method: Bax−/− Bak−/− double-knockout Baby Mouse Kidney (BMK) cells stably expressing a SMAC-(1-56)-mCherry fusion protein were cultured in DMEM complete (DMEM supplemented with 10% FBS and 1× Penicillin-Streptomycin) in 10 cm diameter tissue-culture treated dishes at 37° C. in a humidified incubator with 5% CO2 in air. Cells were washed with PBS, incubated with 1×Trypsin and resuspended in DMEM complete. Detached cells were seeded at 6000 cells per well in 50 uL DMEM complete into a 384 well Perkin-Elmer Phenoplate, incubated at room-temperature for 30 minutes followed by incubation overnight at 37° C. in a humidified incubator with 5% CO2 in air. Recombinant Bax and recombinant cBid were quickly thawed between fingers and 25 mM compound stocks in DMSO were thawed at room temperature. An 8 point titration curve of each compound was created in a 384-well source plate containing Trehalose-Hepes Buffer (THB, 135 mM trehalose, 50 mM KCl, 10 mM HEPES-KOH pH 7.4, 5 mM succinate, 20 uM EDTA, 20 uM EGTA, 0.1% BSA) supplemented with 1/1000 DRAQ5, 0.0025% digitonin, 20 nM Bax and 0.5 nM cBid. The source plate also contained control wells with THB supplemented with 1/1000 DRAQ5, 0.0025% digitonin plus 20 nM Bax (negative control) or 20 nM Bax and 0.5 nM cBid (positive control). Using the Vantage automated liquid handler, DMEM complete media was removed from the cells growing in the 384 well Phenoplate. The cells were washed 2× with 30 uL THB and then 25 uL from the 384 well source plate containing THB proteins and compounds was transferred to the cells growing in the 384 well plate. The cells were incubated for 60-80 minutes at 37 C in a humidified incubator with 5% CO2 in air and then imaged on the Opera Phenix Microscope. Two image channels were acquired: 1) DRAQ5 channel, to visualize nuclei and aid in cell segmentation and 2) SMAC-mCherry channel to visualize mitochondria that retain SMAC-mCherry. Data was processed using PerkinElmer Harmony software where the cells were segmented using the DRAQ5 channel and the mean intensity of SMAC-mCherry for each cell was calculated. The single-cell lobject level data was exported and then analyzed using R code. A per cell SMAC-mCherry intensity cutoff was calculated as 1.33 times the mean per cell SMAC-mCherry intensity of the THB+Bax control. Cells with a SMAC-mCherry intensity below or equal to the cutoff were scored as “released”. The percentage SMAC-mCherry release was calculated as the number of cells scored as “released” divided by the total amount of cells multiplied by 100. Dose-response curves were fit to a 4-parameter log-logistic model to determine the IC50 value for each compound.
BAX, sequence (Q07812 whole entry, the tested form may be a part): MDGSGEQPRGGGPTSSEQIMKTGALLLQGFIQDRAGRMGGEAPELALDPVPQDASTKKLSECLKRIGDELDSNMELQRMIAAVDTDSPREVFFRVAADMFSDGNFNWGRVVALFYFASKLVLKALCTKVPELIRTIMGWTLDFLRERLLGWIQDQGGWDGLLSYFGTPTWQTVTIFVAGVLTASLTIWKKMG

T1 sequence (P00533 695-1210): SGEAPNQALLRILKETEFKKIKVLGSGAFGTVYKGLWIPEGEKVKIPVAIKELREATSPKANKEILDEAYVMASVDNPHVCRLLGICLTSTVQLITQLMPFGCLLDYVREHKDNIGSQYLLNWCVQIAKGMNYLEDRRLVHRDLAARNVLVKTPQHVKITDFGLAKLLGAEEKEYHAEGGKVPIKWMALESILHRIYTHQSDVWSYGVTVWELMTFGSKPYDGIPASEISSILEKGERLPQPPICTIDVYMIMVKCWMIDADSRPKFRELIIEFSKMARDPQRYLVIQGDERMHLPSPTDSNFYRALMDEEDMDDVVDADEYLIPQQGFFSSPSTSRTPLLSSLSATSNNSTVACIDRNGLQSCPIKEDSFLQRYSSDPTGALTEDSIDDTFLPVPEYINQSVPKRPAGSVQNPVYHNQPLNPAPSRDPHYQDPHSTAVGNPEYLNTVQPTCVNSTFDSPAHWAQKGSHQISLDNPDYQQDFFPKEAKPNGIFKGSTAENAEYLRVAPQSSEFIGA

In the case of `COc1cc2ccnc(Nc3ccc(F)c(Cl)c3)c2cc1NC(=O)CCCN1CCCCC1` [Compound 1-1, N-(1-((3-chloro-4-fluorophenyl)amino)-6-methoxyisoquinolin-7-yl)-4-(piperidin-1-yl)butanamide], the IC50 was greater than 10 µM in assay [1] and 0.1 to 10 µM in assay [2]. As for `O=C(CCCN1CCCCC1)Nc1ccc2ccnc(Nc3ccc(Cl)c(Cl)c3F)c2c1` [Compound 1-34, N-(1-((3,4-dichloro-2-fluorophenyl)amino)isoquinolin-7-yl)-4-(piperidin-1-yl)butanamide], the IC50 in assay [2] fell in the range of 0.1 to 10 µM. Same read-out and setting: the result for `O=C(CCCN1CCCCC1)Nc1ccc2ccnc(Nc3ccc(Cl)c(Cl)c3)c2c1` [Compound 1-35, N-(1-((3,4-dichlorophenyl)amino)isoquinolin-7-yl)-4-(piperidin-1-yl)butanamide] reads 0.1 to 10 µM. Same read-out and setting: to `O=C(CCCN1CCCCC1)Nc1ccc2ccnc(Nc3cc(Cl)c(F)c(Cl)c3)c2c1` [Compound 1-36, N-(1-((3,5-dichloro-4-fluorophenyl)amino)isoquinolin-7-yl)-4-(piperidin-1-yl)butanamide] belongs 0.1 to 10 µM; to `O=C(CCCN1CCCCC1)Nc1ccc2ccnc(Nc3cc(F)c(Cl)c(Cl)c3)c2c1` [Compound 1-37, N-(1-((3,4-dichloro-5-fluorophenyl)amino)isoquinolin-7-yl)-4-(piperidin-1-yl)butanamide], 0.1 to 10 µM; to `O=C(CCCN1CCCCC1)Nc1ccc2ccnc(Nc3cc(Cl)c(Cl)cc3F)c2c1` [Compound 1-38, N-(1-((4,5-dichloro-2-fluorophenyl)amino)isoquinolin-7-yl)-4-(piperidin-1-yl)butanamide], 0.1 to 10 µM.

Consider `O=C(CCCN1CCCCC1)Nc1ccc2ccnc(Nc3cccc(Cl)c3F)c2c1` [Compound 1-39, N-(1-((3-chloro-2-fluorophenyl)amino)isoquinolin-7-yl)-4-(piperidin-1-yl)butanamide], for which the IC50 in assay [2] was in the range of 0.1 to 10 µM. The same measure, in the same setting: to `O=C(CCCN1CCCCC1)Nc1ccc2ccnc(Nc3ccc(F)c(Cl)c3F)c2c1` [Compound 1-40, N-(1-((3-chloro-2,4-difluorophenyl)amino)isoquinolin-7-yl)-4-(piperidin-1-yl)butanamide] belongs 0.1 to 10 µM; to `N#Cc1cccc(Nc2nccc3ccc(NC(=O)CCCN4CCCCC4)cc23)c1` [Compound 1-41, N-(1-((3-cyanophenyl)amino)isoquinolin-7-yl)-4-(piperidin-1-yl)butanamide], 11 to 50 µM. On to `COc1cc2ccnc(Nc3ccc(F)c(Cl)c3)c2cc1NC(=O)CCN1CCCC1` [Compound 1-42, N-(1-((3-chloro-4-fluorophenyl)amino)-6-methoxyisoquinolin-7-yl)-3-(pyrrolidin-1-yl)propanamide], for which the IC50 in assay [2] lay in the range of 11 to 50 µM. The same measure, in the same setting: the result for `COc1cc2ccnc(Nc3ccc(F)cc3Cl)c2cc1NC(=O)CCCN1CCCCC1` [Compound I-19, N-(1-((2-chloro-4-fluorophenyl)amino)-6-methoxyisoquinolin-7-yl)-4-(piperidin-1-yl)butanamide] reads 11 to 50 µM.
